This note sets out measurements from PubChem BioAssay (NCI).

Molecules are shown by their SMILES.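 Following 48 hours of exposure in 96-well plates, responses at five concentrations were used to interpolate endpoints linearly. Abbreviation: GI50, concentration required for 50% inhibition of growth. The concentration for full growth arrest is given as TGI.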 A value given as a limit tells only on which side of the number the result lay.

Common to all, as to test: NCI anticancer screen, dose series, 48 h
Experiment [1] deals with NCI-H522 lung.
For experiment [2], the system named is IGROV1 ovarian.
The subject of experiment [3] is UACC-257 melanoma.
Experiment [4] has as its system RXF 393 renal.
Experiment [5] deals with NCI-H23 lung.
The subject of experiment [6] is LOX IMVI melanoma.
In experiment [7] the test system is KM12 colon.
The test system of experiment [8] is UO-31 renal.
In experiment [9] the test system is SN12C renal.
The subject of experiment [10] is HT29 colon.

In the case of `COc1ccc(/C=C(\C#N)n2nnc3ccccc32)cc1`, the GI50 in experiment [1] was 0.0336 µM; in [2] it was 0.158 µM; in experiment [3] it was 4.92 µM; in experiment [4], 0.15 µM; in experiment [5], 0.572 µM; in experiment [6], 0.548 µM. Further, the GI50 in [7] is 0.0948 µM; in experiment [8] it was 1.01 µM; in [9], 0.832 µM; in experiment [10], 0.0453 µM. The TGI was > 34.1 µM in experiment [1]; 8.16 µM in experiment [2]; > 100 µM in [3]; 0.607 µM in experiment [4]; 50.4 µM in [5]; 6.72 µM in [6]. For the same compound, the TGI is > 21.7 µM in [7], 13 µM in [8], 26.6 µM in experiment [9] and > 100 µM in experiment [10].

In the case of `CN(C)CCCN1c2ccccc2C(C)(C)c2ccccc21`, the TGI in [1] stood at 28.6 µM; in experiment [2] it was 31.7 µM; in [3], 23.9 µM; in experiment [4], 26.8 µM; in [5], 30.4 µM; in experiment [6], 28.4 µM. Besides, the TGI in experiment [7] was determined as 28.3 µM; in [8], 27.4 µM; in experiment [9], 27.9 µM; in experiment [10], 24 µM.

For `Cc1ccc2c(c1)C(C)Cc1c(Cl)ncnc1N2C` (stereo not drawn), the GI50 is 2.67 µM in experiment [1]; 3.39 µM in [2]; 4.29 µM in experiment [3]; 2.87 µM in [4]; 3.29 µM in experiment [5]; 1.8 µM in experiment [6]. Besides, the GI50 is 2.12 µM in [7], 3.03 µM in [8], 3.64 µM in experiment [9] and 3.48 µM in [10]. Also, the TGI in experiment [1] was found to be 8.03 µM; in experiment [2] it was 36.4 µM; in [3], 46.2 µM; in experiment [4] it was 8.62 µM; in experiment [5] it was 22.7 µM; in [6], 3.78 µM. Moreover, the TGI in experiment [7] turned out to be 7.98 µM; in experiment [8], 45.2 µM; in [9], 13.7 µM; in experiment [10], 47.2 µM.

For the compound `COC(=O)C1CCCN1C(=O)[C@@H]1CCCN1C(=O)[C@H](Cc1c[nH]c2ccccc12)NC(=S)Nc1cc(C(F)(F)F)cc(C(F)(F)F)c1` (stereo partly drawn), the GI50 in experiment [1] was 2.15 µM; in experiment [2] it was 3.34 µM; in experiment [3] it was 2.4 µM; in [4] it was 1.78 µM; in experiment [5] it was 2.78 µM; in experiment [6] it was 1.91 µM. Besides, the GI50 is 1.92 µM in experiment [7], 3.63 µM in experiment [8], 2.82 µM in experiment [9] and 1.89 µM in experiment [10]. The TGI stood at 4.99 µM in [1]; 10.9 µM in experiment [2]; 8.17 µM in experiment [3]; 4.4 µM in [4]; 10 µM in experiment [5]; 4.28 µM in [6]. The TGI in [7] worked out at 4.03 µM; in experiment [8] it was 14.5 µM; in [9], 10.5 µM; in experiment [10], 3.44 µM.

For the compound `Clc1ccc2nnnn2n1`, the GI50 in experiment [1] is 3.01 µM; in [2], 4.05 µM; in experiment [3] it was 16.1 µM; in experiment [4] it was 2.75 µM; in experiment [5] it was 5.98 µM; in experiment [6], 3.64 µM. Besides, the GI50 in experiment [7] is 2.08 µM; in experiment [8], 3.52 µM; in [9] it was 4.7 µM; in experiment [10], 2.93 µM. The TGI in experiment [1] is 11.2 µM; in experiment [2], 50.1 µM; in experiment [3], 56.9 µM; in [4], 8.65 µM; in experiment [5], 35.4 µM; in experiment [6], > 100 µM. The TGI in [7] was 4.87 µM; in [8], > 100 µM; in experiment [9], > 100 µM; in experiment [10] it was 8.03 µM.

As for `Cc1cc(Cc2cc(C)cc(C(C)(C)C)c2O)c(O)c(Cc2cc(C)cc(C(C)(C)C)c2O)c1`, the TGI in experiment [1] was found to be 4.28 µM; in [2], 14 µM; in experiment [3], 5.3 µM; in experiment [4], 8.21 µM; in experiment [5], 5.34 µM; in [6], 10.9 µM. The TGI worked out at 10 µM in [7], 10.4 µM in experiment [8], 8.28 µM in experiment [9] and 7.78 µM in [10].

Take `CN(C)CC1C(=O)O[C@H]2[C@H]1CC/C(COC(=O)c1cc3ccccc3[nH]1)=C\CC[C@@]1(C)O[C@@H]21` (stereo partly drawn): the GI50 in experiment [1] is 1.32 µM; in [2] it was 1.97 µM; in [3] it was 1.47 µM; in experiment [4] it was 1.4 µM; in experiment [5], 2.39 µM; in experiment [6], 0.5 µM. The GI50 in [7] is 3.23 µM; in experiment [8] it was 0.872 µM; in experiment [9] it was 2.2 µM; in experiment [10], 0.671 µM. The TGI in [1] was found to be 3.05 µM; in experiment [2], 4.62 µM; in experiment [3] it was 3.24 µM; in experiment [4], 2.89 µM; in experiment [5], 8.3 µM; in [6] it was 0.992 µM. Moreover, the TGI came to 10.8 µM in experiment [7], 2.36 µM in experiment [8], 6.08 µM in experiment [9] and 2.57 µM in experiment [10].

For the compound `O=c1[nH]c(=O)c2cc(C3CC(O)C(CO)O3)ccc2[nH]1` (stereo not drawn), the GI50 in experiment [1], in [2], in experiment [3], in experiment [4], in experiment [5] and in experiment [6] was > 100 µM in each case. In addition, the GI50 in experiment [8], in experiment [9] and in experiment [10] was > 100 µM in each case. For the same compound, the TGI in [1], in [2], in [3], in experiment [4], in experiment [5] and in [6] was > 100 µM each time. The TGI in [8], in [9] and in experiment [10] was > 100 µM throughout.

As to `O=C(c1ccccc1)[C@@H]1C[C@H](Sc2ccccc2)c2cc(Cl)ccc2N1`, the TGI was 48.6 µM in [1]; > 100 µM in [2]; 37.4 µM in [3]; 26.5 µM in experiment [4]; 64.2 µM in experiment [5]; 47.7 µM in experiment [6]. In addition, the TGI in [7] is > 100 µM; in [8] it was 56.7 µM; in [9], 33.7 µM; in experiment [10], 56.3 µM.
